Patent publication US20150351390A1, “COMPOSITIONS AND METHODS FOR AUXIN-ANALOG CONJUGATION” (PIONEER HI-BRED INTERNATIONAL, INC., priority 2012, published 2015)

Experiments:
soybean seedlings = experiment: Soybean seedling response to spot infiltrated auxins and conjugates; type: in vivo; settings: for 1st trifoliate leaf curl: spot infiltration; on 1st trifoliate leaf curl: key: 0 = no phenotype; +/− = threshold
[1] = system: wild-type Col-0 Arabidopsis; experiment: Root growth inhibition by 2,4-D, wild-type Arabidopsis; type: in vivo, Arabidopsis thaliana; settings: Non transgenic (Col-0)
Description: Seeds of Arabidopsis ecotype Columbia (Col-0) and GH3 transgenic events were surface sterilized with 70% (v/v) ethanol for 5 minutes and 10% (v/v) bleach for 15 minutes. After being washed three times with distilled water, the seeds were incubated at 4° C. for 4 days. The seeds were then germinated on 1× Murashige and Skoog (MS) medium with a pH of 5.7, 3% (w/v) sucrose, and 0.8% (w/v) agar. After incubation for 3.5 days, the seedlings were transferred to the basal medium containing B5 vitamin, 3% (w/v) sucrose, […] MES (pH 5.7), 1.2% (w/v) agar, and filter sterilized auxin herbicides 2,4-D or dicamba was added to the media at 60° C. The concentrations of 2,4-D were 0 μM, 0.1 μM, 0.5 μM, 0.7 μM, and 1.0 μM. The concentrations of dicmaba were 0 μM, 1.0 μM, 5.0 μM, 7.0 μM, and 10 μM. […]
After 6 days on media with various concentrations of 2,4-D or dicamba, the length of the primary root was measured. […]
Transgenic Arabidopsis lines overexpressing SEQ ID NO:3 were generated and evaluated for 2,4-D herbicide response as described in Example 5. […] Root length of 8 plants per transgenic line was measured and the average was compared to untreated seedlings within the same genetic background.

[2] = system: Arabidopsis ecotype Col-0 plant; experiment: Arabidopsis response to spot infiltrated auxins and conjugates; type: in vivo, Arabidopsis thaliana; settings: 50, 150, and 500 μM; result in words
Description: The effect of auxin conjugates was assessed using Arabidoposis (Arabidopsis thialiana) ecotype Col-0 plant. Prior to studies utilizing the auxin conjugates, levels of analytical grade (98%+pure) IAA, 2,4-D and dicamba in solution were applied at various concentrations directly to developmentally similar leaves of 20-23 day old Arabidopsis seedlings by needleless syringe spot infiltration methodology, in order to determine range of auxinic response and severity. Phenotypes were documented relative to control at 1 day post-spot infiltration and subsequently every other day, up to nine days post treatment. Three concentrations were chosen based on reproducibility, and conjugated forms were then studied with 4 or more replicate treatments for each, along with appropriate negative controls (H2O and 10% EtOH).
Examples 9 and 10 utilized a spot infiltration method for the delivery of an herbicide directly to leaves of a plant. The method generally allows for the directed delivery of a variety of agents to a localized area of a plant, e.g. localized region of leaves, for screening or assessment purposes, e.g. to quickly assess the response of a plant to the agent. As used in the foregoing examples, the spot infiltration method was used to introduce specific herbicides or specific conjugates of the herbicides to seedling plant leaves. Following introduction of the herbicide or the appropriate conjugate, plants were observed daily for nine days for characteristics of epinasty, trifoliate leaf curly, chlorosis, and new growth recovery.
Briefly, a solution of the desired agent is prepared of the desired agent, e.g. as described above in Example 10, solutions (5% EtOH) of 1, 2.5 and 5 mM IAA. The solution is then drawn into a 1 mL BD™ slip-tip syringe, bulk, non-sterile syringe (e.g. Becton, Dickinson and Company, Product No. 301025) with 100 μL markings. The desired volume is then applied to the leaf, e.g. as described in Examples 9 and 10, with the tip of the syring against the leaf and positive pressure applied to the syringe plunger. Sufficient pressure is applied in order to infuse the area beneath the syringe opening, but not so much pressure as to cause a visible-to-the-eye puncture or hole to form in the leaf. Some run-off of solution around the syringe opening is expected. In the foregoing examples, two spots were applied to each of two leaves per seedling for soybean plants. […] In soybean, both spots per leaf were at the distal portion of the leaf about 1-2 cm apart. When the method was applied to Arabidopsis, two developmentally intermediate aged leaves were chosen per plant, and one spot infiltration was carried out per leaf.
Generally, for Arabidopsis, the two leaves were chosen from opposite sides of rosette. In general, the spot infiltration method is carried out on younger plants in order to minimize experimental footprint and to maintain developmental uniformity. However, the method is not limited to use on young plants and can be easily applied to older plants as determined by the goals of a particular experiment.

## O=C(O)COc1ccc(Cl)cc1Cl [2,4-D, 2,4-dichlorophenoxyacetic acid]
Soybean seedlings; 100 μM
  1st trifoliate leaf curl: 0
Soybean seedlings; 250 μM
  1st trifoliate leaf curl: 0
Soybean seedlings; 500 μM
  1st trifoliate leaf curl: 0
Soybean seedlings; 100, 250 & 500 μM, result in words
  Plant response phenotype, soybean: increased auxinic response ranging from mild to extreme epinasty
[1]; 10 nM 2,4-D
  Percentage of the average root length compared with 0 nM 2,4-D treatment: 77%
[1]; 100 nM 2,4-D
  Percentage of the average root length compared with 0 nM 2,4-D treatment: 58%
[2]
  Phenotype, Arabidopsis: increased auxinic response ranging from mild to more extreme epinasty
